In PubChem BioAssay (NCI) one finds TGI and GI50 data, which are given here for 29 compounds.

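How tested: cells in 96-well plates exposed to compound for 48 hours at five concentrations. The concentration for 50% growth inhibition is given as GI50. TGI: total growth inhibition.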

Common to all, as to assay: NCI anticancer screen, dose series, 48 h
Test [1] has as its system ACHN renal.
Test [2] relates to HOP-62 NSCLC.
The subject of test [3] is HOP-92 NSCLC.
Test [4] deals with K-562 leukemia.
Test [5] has as its system OVCAR-3 ovarian.
In test [6] the test system is OVCAR-5 ovarian.
Test [7] concerns SK-MEL-2 melanoma.
Test [8] relates to SK-MEL-5 melanoma.
The subject of test [9] is SK-OV-3 ovarian.
Test [10] has as its system UACC-62 melanoma.
In test [11] the test system is BT-549 breast.

`O=C1C(NCCc2cc(Br)c(O)c(Br)c2)=CC(=O)c2ncccc21`: the TGI in test [1] came out at 24.9 µM; in test [2], 9.99 µM; in test [3] it was 47.5 µM; in test [4] it was 13.8 µM; in [5] it was 6.26 µM; in test [6], 20.2 µM. Also, the TGI in test [7] came to 29.9 µM; in [8], 2.83 µM; in test [9], 68.1 µM; in test [10] it was 3.51 µM.
As for `CC1CCCc2c(-c3ccc(Cl)cc3)nc(N)c(C#N)c21` (configuration not stated), the TGI is more than 100 µM in test [1]; 53.4 µM in test [11]; 63 µM in [2]; 93.5 µM in test [4]; more than 100 µM in [5]; more than 100 µM in [6]. Also, the TGI in [7] was found to be 67.6 µM; in [8], 38.5 µM; in [9] it was 83.6 µM; in test [10], 40.2 µM.
Take `CCN(CC)CCCCC1CCN(CC(=O)N2c3ccccc3NC(=O)c3ccccc32)CC1`: the TGI in test [2], in test [3], in [4], in test [5], in [7] and in test [8] was more than 100 µM throughout. For the same compound, the TGI in test [9] and in test [10] was more than 100 µM each time.
Regarding `C1=CCN(c2ccccc2)CC1`, the TGI in test [1] was 56.8 µM; in test [3], 61.6 µM; in test [4], more than 100 µM; in test [5], 61.2 µM; in [6], more than 100 µM; in test [7] it was more than 100 µM. Further, the TGI in test [8], in [9] and in test [10] was more than 100 µM each time.
`COc1ccc(NS(=O)CCc2ccccc2)cc1` (configuration not stated): the TGI in [1], in test [2], in test [4], in test [5], in test [6] and in [8] was more than 100 µM in each case.
With `CCCOC(=O)c1cc(C(=CCC[C@H]2CC[C@@]3(C)[C@@H](CC[C@@H]4[C@@H]3CC[C@]3(C)[C@@H](C(C)CCCC(C)C)CC[C@@H]43)C2)c2cc(Cl)c(O)c(C(=O)OCCC)c2)cc(Cl)c1O` (some centres not stated), the TGI is more than 50 µM in test [11]; more than 50 µM in [2]; more than 5 µM in test [4]; more than 50 µM in test [5]; more than 50 µM in test [7]; more than 50 µM in test [8]. In test [10], this compound came in with a TGI of more than 50 µM.
In the case of `CC(=O)c1c2c(cc3c1CC1(Cc4cc5c(cc4C1)CCC5)C3)CCC2`, the TGI in test [1], in test [2], in [3], in test [4], in test [5] and in test [6] was more than 100 µM each time. The TGI in test [7], in test [8] and in test [9] was more than 100 µM each time.
In the case of `NC(=S)N/N=C/c1cc(CN2CCOCC2)c(N)cn1`, the TGI in test [1], in test [11], in test [2], in test [4], in test [5] and in test [6] was more than 100 µM each time. Further, the TGI in [7], in test [8], in [9] and in test [10] was more than 100 µM each time.
As to `Nc1ccc(N=Nc2ccc(/C=C/c3ccc(N=Nc4ccc(N)c5ccc(S(=O)(=O)O)cc45)cc3S(=O)(=O)O)c(S(=O)(=O)O)c2)c2cc(S(=O)(=O)O)ccc12`, the TGI in [2], in test [3], in [4], in test [5], in [6] and in test [7] was more than 100 µM each time. In addition, the TGI in test [8], in [9] and in test [10] was more than 100 µM in each case.
Regarding `CC(=O)OCC(OC(C)=O)C(OC(C)=O)C(/C=N/N(C(C)=O)S(=O)(=O)c1ccc(/C=C2\NC(=O)NC2=O)cc1)OC(C)=O` (configuration not stated), the TGI in test [1], in test [11], in [2], in [4], in [5] and in test [6] was more than 100 µM each time. In addition, the TGI in [7], in [8], in test [9] and in test [10] was more than 100 µM each time.
On to `CCOC(=O)[C@H]1C[C@@H](C(=O)c2ccccc2)N2N=C(c3ccc(Br)cc3)C=C[C@H]12`, for which the TGI in [1], in [11], in test [2], in test [4], in test [5] and in test [6] was more than 100 µM throughout. Besides, the TGI in test [7], in test [9] and in test [10] was more than 100 µM in each case.
Turning to `CC(SC1=CC(=O)c2c(Cl)ccc(O)c2C1=O)C(=O)O` (configuration not stated), the TGI was 38.6 µM in [3], more than 100 µM in test [4], 33.6 µM in test [7] and 27.5 µM in [8].
Consider `CSc1nc(=S)[nH]c2n[nH]c(C)c12`, for which the TGI in test [11], in [4], in test [5], in [6], in [7] and in test [8] was more than 100 µM each time. Also, the TGI in test [9] and in test [10] was more than 100 µM throughout.
Take `C/C(C=O)=C1\C(O)C[C@]1(C)C1CC(C)(C)CC1O` (some centres not stated): the TGI in test [1], in test [2], in test [3], in [4], in test [5] and in test [6] was more than 100 µM each time. Also, the TGI in test [7] and in [8] was more than 100 µM throughout.
For the compound `CCc1cc(Cc2cc(CC)c(NC(=O)C3=CC(=O)CC(c4ccc(OC)cc4)O3)c(CC)c2Cl)c(Cl)c(CC)c1NC(=O)C1=CC(=O)CC(c2ccc(OC)cc2)O1` (configuration not stated), the TGI in [1] is 32.1 µM; in test [2], 46.5 µM; in test [3], 39.7 µM; in test [4] it was more than 100 µM; in test [5], 38.2 µM; in test [6], 37.3 µM. In addition, the TGI is 36.7 µM in test [7], 36.4 µM in [8], 32.2 µM in test [9] and 63.2 µM in [10].
Turning to `Cc1ccc(S(=O)(=O)N/N=C2\C(=O)C3CC2C(Cl)C3Cl)cc1` (configuration not stated), the TGI in [1], in [2], in test [3], in test [4], in test [5] and in [6] was more than 100 µM each time. Further, the TGI in test [8], in test [9] and in [10] was more than 100 µM in each case.
For `COc1ccc2c(c1)c(Cc1c(C)n(C)c3ccc(OC)cc13)c(C)n2C`, the TGI in test [1], in [2], in test [3], in test [4], in test [5] and in test [6] was more than 100 µM each time. Besides, the TGI in test [7], in test [8], in test [9] and in test [10] was more than 100 µM in each case.
In the case of `COc1cc(/C=C2\CCCC3=C2NC(N)=NC3c2cc(OC)c(OC)c(OC)c2)cc(OC)c1OC` (configuration not stated), the GI50 in test [3] was 1.58 µM; in test [4], 2.15 µM; in test [7], 2.08 µM; in test [9] it was 3.43 µM. The TGI is 5.74 µM in test [3], more than 100 µM in test [4], 4.83 µM in test [7] and more than 100 µM in test [9].
Take `CC(=O)Nc1ccc(-c2nnc(SCC(=O)Nc3ccccc3Cl)o2)cc1`: the TGI in test [1], in test [2], in test [4], in test [5], in [6] and in test [7] was more than 100 µM throughout. Also, the TGI in [8] and in test [9] was more than 100 µM in each case.
In the case of `C1CSCC2(COC2)CS1`, the TGI in test [1], in [3], in [4], in test [8] and in test [9] was more than 100 µM in each case.
With `CSC1=N/C(=C\c2cccs2)C(=O)N1CN1CCCCC1`, the TGI is more than 100 µM in test [1]; more than 100 µM in test [2]; 96.5 µM in test [3]; more than 100 µM in test [4]; more than 100 µM in test [5]; more than 100 µM in test [6]. In addition, the TGI in test [7], in test [8], in [9] and in [10] was more than 100 µM each time.
As to `c1ccc(C2=NN(c3ccccc3)C3(S2)SC(c2ccccc2)(c2ccccc2)c2ccccc23)cc1` (configuration not stated), the TGI in test [1], in test [2], in test [3], in test [4], in test [5] and in [6] was more than 100 µM throughout. In addition, the TGI in test [7], in [8], in test [9] and in test [10] was more than 100 µM in each case.
On to `CCOc1ccc(NCC(=O)N2CC(=O)Nc3ccccc32)cc1`, for which the TGI in test [1], in [2], in test [3], in test [4], in test [5] and in test [6] was more than 100 µM in each case. Moreover, the TGI in test [7], in [8], in [9] and in test [10] was more than 100 µM throughout.
For `CC1CN=C(NCc2ccccc2)S1` (configuration not stated), the TGI in test [1], in test [11], in [2], in [4], in test [5] and in test [6] was more than 100 µM throughout. The TGI in test [7], in test [9] and in [10] was more than 100 µM each time.
For `CN(C(=O)C1=CCCCCC1)c1ccccc1I`, the TGI in test [1], in test [2], in test [4], in test [5], in test [6] and in [7] was more than 100 µM each time. In addition, the TGI in [8], in [9] and in [10] was more than 100 µM each time.
On to `COc1ccc(CCN2CCC(C#N)(c3ccc(OC)c(OC)c3)CC2)cc1OC`, for which the TGI in [1], in test [2], in test [3], in test [4], in test [5] and in test [6] was more than 100 µM in each case. The TGI in test [7], in [8], in test [9] and in [10] was more than 100 µM each time.
In the case of `Oc1cn(-c2ccc(Cl)cc2)nc1-c1nnc(Nc2ccccc2)o1`, the TGI is 71.6 µM in test [1]; 31.6 µM in test [2]; more than 100 µM in [5]; more than 100 µM in [6]; 38.3 µM in test [7]; 23.6 µM in [8]. For the same compound, the TGI in test [9] amounted to 49.4 µM; in test [10] it was 30.6 µM.
Consider `Cc1nc2ccccc2nc1NS(=O)(=O)c1ccc(N)cc1`, for which the TGI in test [1], in test [2], in test [3], in test [4], in test [5] and in [6] was more than 100 µM in each case. In addition, the TGI in [7], in test [8] and in test [10] was more than 100 µM in each case.
For `O=C1/C(=C/c2cccc([N+](=O)[O-])c2)COc2ccccc21`, the TGI is 8.04 µM in test [1]; more than 30.4 µM in [2]; more than 72.8 µM in test [3]; more than 28.5 µM in test [4]; 13.2 µM in test [5]; more than 100 µM in test [6]. For the same compound, the TGI is 20 µM in [7], 4.99 µM in test [8], more than 62.8 µM in [9] and 3.19 µM in test [10].
